Source: US10501479B2, “Benzenesulfonyl-asymmetric ureas and medical uses thereof” (HELSINN HEALTHCARE SA, priority 2016, dated 2019)
Like-named read-outs stand apart in the source and are kept apart here.

Assays:
Type in all cases: cell-based
[1] = molecular target: T1, recombinant human ghrelin receptor (HEK293/GRLN) (Homo sapiens, UniProt Q92847); assay: Ghrelin inverse agonist potency (EC50) with IP-1 (IP-One HTRF) assay; settings: ghrelin inverse agonist potency, IP-1 assay; read-out: Activity EC50
T1 construct: expressed in transfected cells
T1 sequence (Q92847 whole entry): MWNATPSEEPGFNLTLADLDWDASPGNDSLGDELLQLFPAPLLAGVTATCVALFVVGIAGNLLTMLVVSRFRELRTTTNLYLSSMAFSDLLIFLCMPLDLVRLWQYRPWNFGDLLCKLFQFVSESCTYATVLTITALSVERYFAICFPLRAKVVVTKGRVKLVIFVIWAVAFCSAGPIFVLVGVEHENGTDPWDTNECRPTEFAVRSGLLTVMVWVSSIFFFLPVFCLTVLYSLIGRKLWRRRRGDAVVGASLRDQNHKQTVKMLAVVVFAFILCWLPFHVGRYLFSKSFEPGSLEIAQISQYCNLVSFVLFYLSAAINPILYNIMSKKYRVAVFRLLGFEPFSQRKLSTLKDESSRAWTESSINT
Outline: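 HEK293/GRLN cells were seeded 18-22 hours before the test, then exposed to compound in stimulation buffer for 1 hour at 37° C, 5% CO2. IP-1 was detected by IP-One HTRF (IP1-d2 plus Tb-cryptate, 1 hour RT), reading 620 and 665 nm; the inverse agonist EC50 was derived from this.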

[2] = molecular target: T2, GHSR-1a (HEK293/GHSR1a cell line) (Homo sapiens, UniProt Q92847); assay: Ghrelin agonist potency (EC50) with calcium FLIPR assay; settings: ghrelin agonist potency, read-out: Activity EC50/EMax
T2 construct: expressed in transfected cells; host or cells: HEK293/GHSR1a cell line
T2 sequence (Q92847 whole entry): as above
Outline: (§1)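 Dye preload 30-60 min, RT or 37° C; compound in DMSO. Agonist mode: compound at t=20 sec, Ca2+ read 2 min. Antagonist mode: compound + ghrelin 10 nM at t=20 sec, 2 min read. EC50/IC50 from dose-response curves.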

[3] = molecular target: T2, GHSR-1a (HEK293/GHSR1a cell line); assay: Ghrelin antagonist potency (IC50) with calcium FLIPR assay, ghrelin 10 nM; settings: ghrelin antagonist potency, read-out: Activity IC50
Outline: as §1

Row | Structure (SMILES) | EC50 [1] | EC50 [2] | IC50 [3] | EC50 ([2]; heading: Activity EC50/EMax)
1 | CC(c1ccccc1)N(C)C(=O)Nc1ccc(S(=O)(=O)Cc2ccc3c(c2)CNC3)cc1O (stereo not drawn) [H1460, 3-(2-hydroxy-4-((isoindolin-5-ylmethyl)sulfonyl)phenyl)-1-methyl-1-(1-phenylethyl)urea] | 163 nM | > 30 µM | 536 nM | 
2 | COc1cc(S(=O)(=O)Cc2nc3c(s2)CNC3)ccc1NC(=O)N[C@@H](C)c1ccccc1 [H1463, (S)-1-(4-(((5,6-dihydro-4H-pyrrolo[3,4-d]thiazol-2-yl)methyl)sulfonyl)-2-methoxyphenyl)-3-(1-phenylethyl)urea] | 289 nM | > 30 µM | 1150 nM | 
3 | COc1cc(S(=O)(=O)Cc2nc3c(s2)CN(C)C3)ccc1NC(=O)N[C@@H](C)c1ccccc1 [H1464, (S)-1-(2-methoxy-4-(((5-methyl-5,6-dihydro-4H-pyrrolo[3,4-d]thiazol-2-yl)methyl)sulfonyl)phenyl)-3-(1-phenylethyl)urea] | 290 nM | > 30 µM | 2960 nM | 
4 | C[C@H](NC(=O)Nc1ccc(S(=O)(=O)Cc2nc3c(s2)CNC3)cc1)c1ccccc1 [H1465, (S)-1-(4-(((5,6-dihydro-4H-pyrrolo[3,4-d]thiazol-2-yl)methyl)sulfonyl)phenyl)-3-(1-phenylethyl)urea] | 678 nM | > 30 µM | 5290 nM | 
5 | COC(=O)c1cc(S(=O)(=O)Cc2ccc3c(c2)CN(C)C3)ccc1NC(=O)NC(C)c1ccccc1 (stereo not drawn) [H1466, methyl 5-(((2-methylisoindolin-5-yl)methyl)sulfonyl)-2-(3-(1-phenylethyl)ureido)benzoate] | 16.8 nM | > 30 µM | 72.4 nM | 
6 | CC(NC(=O)Nc1ccc(S(=O)(=O)Cc2ccc3c(c2)CNC3)cc1CO)c1ccccc1 (stereo not drawn) [H1467, 1-(2-(hydroxymethyl)-4-((isoindolin-5-ylmethyl)sulfonyl)phenyl)-3-(1-phenylethyl)urea] | 19.7 nM | > 30 µM | 121 nM | 
7 | CC(NC(=O)Nc1ccc(S(=O)(=O)Cc2ccc3c(c2)CN(C)C3)cc1CO)c1ccccc1 (stereo not drawn) [H1468, 1-(2-(hydroxymethyl)-4-(((2-methylisoindolin-5-yl)methyl)sulfonyl)phenyl)-3-(1-phenylethyl)urea] | 18.2 nM | > 30 µM | 80.6 nM | 
8 | CC(c1ccccc1)n1c(=O)[nH]c2ccc(S(=O)(=O)Cc3ccc4c(c3)CNC4)cc2c1=O (stereo not drawn) [H1469, 6-((isoindolin-5-ylmethyl)sulfonyl)-3-(1-phenylethyl)quinazoline-2,4(1H,3H)-dione] | 26 nM |  | 110 nM | 0.11 µM
9 | CC(c1ccccc1)n1c(=O)[nH]c2ccc(S(=O)(=O)Cc3ccc4c(c3)CN(C)C4)cc2c1=O (stereo not drawn) [H1470, 6-(((2-methylisoindolin-5-yl)methyl)sulfonyl)-3-(1-phenylethyl)quinazoline-2,4(1H,3H)-dione] | 22.3 nM |  | 483 nM | 0.227 µM
10 | CC(c1ccccc1)N(O)C(=O)Nc1ccc(S(=O)(=O)Cc2ccc3c(c2)CN(C)C3)cc1 (stereo not drawn) [H1471, 1-hydroxy-3-(4-(((2-methylisoindolin-5-yl)methyl)sulfonyl)phenyl)-1-(1-phenylethyl)urea] | 3.89 nM | > 30 µM | 11.8 nM | 
11 | CC(NC(=O)N(O)c1ccc(S(=O)(=O)Cc2ccc3c(c2)CNC3)cc1)c1ccccc1 (stereo not drawn) [H1473, 1-hydroxy-1-(4-((isoindolin-5-ylmethyl)sulfonyl)phenyl)-3-(1-phenylethyl)urea] | 515 nM | > 30 µM | 2240 nM | 
12 | CC(c1ccccc1)N(C)C(=O)Nc1ccc(S(=O)(=O)Cc2ccc3c(c2)CN(C)C3)cc1O (stereo not drawn) [H1474, 3-(2-hydroxy-4-(((2-methylisoindolin-5-yl)methyl)sulfonyl)phenyl)-1-methyl-1-(1-phenylethyl)urea] | 133 nM | > 30 µM | 700 nM | 
13 | COc1ccc(C(C)NC(=O)Nc2ccc(S(=O)(=O)Cc3ccc4c(c3)CNC4)cc2)cc1Cl (stereo not drawn) [H1475, 1-(1-(3-chloro-4-methoxyphenyl)ethyl)-3-(4-((isoindolin-5-ylmethyl)sulfonyl)phenyl)urea] | 18.9 nM | > 30 µM | 32.2 nM | 
14 | COc1ccc(C(C)NC(=O)Nc2ccc(S(=O)(=O)Cc3ccc4c(c3)CN(C)C4)cc2)cc1Cl (stereo not drawn) [H1476, 1-(1-(3-chloro-4-methoxyphenyl)ethyl)-3-(4-(((2-methylisoindolin-5-yl)methyl)sulfonyl)phenyl)urea] | 24.1 nM | > 30 µM | 42.6 nM | 
15 | COc1ccc(CNC(=O)Nc2ccc(S(=O)(=O)Cc3ccc4c(c3)CN(C)C4)cc2)cc1Cl [H1478, 1-(3-chloro-4-methoxybenzyl)-3-(4-(((2-methylisoindolin-5-yl)methyl)sulfonyl)phenyl)urea] | 19.6 nM | > 30 µM | 40.3 nM | 
16 | CC(NC(=O)Nc1ccc(C(=O)Nc2ccc3c(c2)CNC3)cc1)c1ccccc1 (stereo not drawn) [H1479, N-(isoindolin-5-yl)-4-(3-(1-phenylethyl)ureido)benzamide] | 1950 nM | > 30 µM | 2500 nM | 
17 | CC(NC(=O)Nc1ccc(C(=O)Nc2ccc3c(c2)CN(C)C3)cc1)c1ccccc1 (stereo not drawn) [H1480, N-(2-methylisoindolin-5-yl)-4-(3-(1-phenylethyl)ureido)benzamide] | > 10000 nM | > 30 µM | 24200 nM | 
18 | O=C(NCC1COc2ccccc2O1)Nc1ccc(S(=O)(=O)Cc2ccc3c(c2)CNC3)cc1 (stereo not drawn) [H1483, 1-((2,3-dihydrobenzo[b][1,4]dioxin-2-yl)methyl)-3-(4-((isoindolin-5-ylmethyl)sulfonyl)phenyl)urea] | 24.1 nM | > 30 µM | 53.8 nM | 
19 | CC(NC(=O)Nc1ccc(S(=O)(=O)Cc2ccc3c(c2)CNC3)cc1Br)c1ccccc1 (stereo not drawn) [H1485, 1-(2-bromo-4-((isoindolin-5-ylmethyl)sulfonyl)phenyl)-3-(1-phenylethyl)urea] | 10.2 nM | > 30 µM | 19.1 nM | 
20 | CC(NC(=O)Nc1ccc(S(=O)(=O)CC2=CC3CCC(C2)N3)cc1)c1cccc(Cl)c1Cl (stereo not drawn) [H1488, 1-(4-(((8-azabicyclo[3.2.1]oct-2-en-3-yl)methyl)sulfonyl)phenyl)-3-(1-(2,3-dichlorophenyl)ethyl)urea] | 668 nM | > 30 µM | 2050 nM | 
21 | O=C(Nc1ccc(S(=O)(=O)Cc2ccc3c(c2)CNC3)cc1)N(O)Cc1ccccc1 [H1502, 1-benzyl-1-hydroxy-3-(4-((isoindolin-5-ylmethyl)sulfonyl)phenyl)urea] | 35.1 nM | > 30 µM | 164 nM | 
22 | CN1Cc2ccc(CS(=O)(=O)c3ccc(NC(=O)N(O)Cc4ccccc4)cc3)cc2C1 [H1503, 1-benzyl-1-hydroxy-3-(4-(((2-methylisoindolin-5-yl)methyl)sulfonyl)phenyl)urea] | 101 nM | > 30 µM | 512 nM | 
23 | CC(NC(=O)Nc1ccc(S(=O)(=O)Cc2ccc3c(c2)CNC3)c(-c2ncco2)c1)c1ccccc1 (stereo not drawn) [H1507, 1-(4-((isoindolin-5-ylmethyl)sulfonyl)-3-(oxazol-2-yl)phenyl)-3-(1-phenylethyl)urea] | 19.7 nM | > 30 µM | 12.8 nM | 
24 | CC(NC(=O)Nc1ccc(S(=O)(=O)Cc2ccc3c(c2)CN(C)C3)c(-c2ncco2)c1)c1ccccc1 (stereo not drawn) [H1508, 1-(4-(((2-methylisoindolin-5-yl)methyl)sulfonyl)-3-(oxazol-2-yl)phenyl)-3-(1-phenylethyl)urea] | 30 nM | > 30 µM | 61.8 nM | 
25 | CC(NC(=O)Nc1ccc(S(=O)(=O)Cc2ccc3c(c2)CNC3)cc1C(C)(C)O)c1ccccc1 (stereo not drawn) [H1512, 1-(2-(2-hydroxypropan-2-yl)-4-((isoindolin-5-ylmethyl)sulfonyl)phenyl)-3-(1-phenylethyl)urea] | 273 nM | > 30 µM | 582 nM | 
26 | CC(=O)N1C2CC=C(CS(=O)(=O)c3ccc(NC(=O)NC(C)c4cccc(Cl)c4Cl)cc3)C1CC2 (stereo not drawn) [H1513, 1-(4-(((8-acetyl-8-azabicyclo[3.2.1]oct-2-en-2-yl)methyl)sulfonyl)phenyl)-3-(1-(2,3-dichlorophenyl)ethyl)urea] | 707 nM | > 30 µM | 14600 nM | 
27 | CC(NC(=O)Nc1ccc(S(=O)(=O)CC2=CCC3CCC2N3C(C)C)cc1)c1cccc(Cl)c1Cl (stereo not drawn) [H1514, 1-(1-(2,3-dichlorophenyl)ethyl)-3-(4-(((8-isopropyl-8-azabicyclo[3.2.1]oct-2-en-2-yl)methyl)sulfonyl)phenyl)urea] | 17.6 nM | > 30 µM | 16200 nM | 
28 | CC(NC(=O)Nc1ccc(S(=O)(=O)Cc2ccc3c(c2)CNC3)c(CO)c1)c1ccccc1 (stereo not drawn) [H1520, 1-(3-(hydroxymethyl)-4-((isoindolin-5-ylmethyl)sulfonyl)phenyl)-3-(1-phenylethyl)urea] | 12.7 nM | > 30 µM | 26.2 nM | 
29 | Cc1ccc(C(C)NC(=O)Nc2ccc(S(=O)(=O)Cc3ccc4c(c3)CNC4)cc2)cc1C(F)F (stereo not drawn) [H1521, 1-(1-(3-(difluoromethyl)-4-methylphenyl)ethyl)-3-(4-((isoindolin-5-ylmethyl)sulfonyl)phenyl)urea] | 17.8 nM | > 30 µM | 52.3 nM | 
